Data: ChEMBL document CHEMBL3734721 (J Med Chem, 2015)
pEC50, pIC50: −log10 of the molar value. ≈ marks a conversion by molar mass, not a printed value.

Assays:
[1] = Chemical stability of compound in 0.1N HCL and 0.5% H2O2 assessed as compound remaining at 10 mg/ml after 1 day; assay type: physicochemical; conditions: read-out: Stability
[2] = Cmax in Swiss mouse brain at 5 mg/kg, sc; assay type: ADME, organism-based; design: dose 5 mg/kg, route subcutaneous
[3] = Chemical stability of compound in 0.1N NaOH assessed as compound remaining at 10 mg/ml after 1 day; assay type: physicochemical; conditions: read-out: Stability
[4] = biological target: T1, 5-hydroxytryptamine receptor 6 (Homo sapiens, UniProt P50406); assay: Antagonist activity at human 5-HT6 receptor expressed in 1321N1 cells assessed as seretonin-induced cAMP by HTRF assay; assay type: functional, cell-based
T1 sequence (P50406 whole entry): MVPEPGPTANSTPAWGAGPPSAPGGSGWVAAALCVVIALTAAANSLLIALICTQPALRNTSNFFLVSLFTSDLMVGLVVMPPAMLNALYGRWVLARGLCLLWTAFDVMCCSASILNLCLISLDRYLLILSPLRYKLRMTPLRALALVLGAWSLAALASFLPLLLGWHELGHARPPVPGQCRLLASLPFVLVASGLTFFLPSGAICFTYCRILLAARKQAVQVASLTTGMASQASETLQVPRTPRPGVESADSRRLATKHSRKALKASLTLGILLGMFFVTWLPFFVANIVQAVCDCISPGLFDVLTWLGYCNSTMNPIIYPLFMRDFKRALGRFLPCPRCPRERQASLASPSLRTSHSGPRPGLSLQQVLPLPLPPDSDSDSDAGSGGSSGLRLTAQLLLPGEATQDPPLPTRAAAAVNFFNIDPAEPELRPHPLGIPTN

[5] = Fraction unbound in human plasma at 5 uM after 4.5 hrs by LC-MS/MS analysis; assay type: ADME, cell-free
[6] = biological target: T2, 5-hydroxytryptamine receptor 7 (Homo sapiens, UniProt P34969); assay: Agonist activity at human wild-type 5-HT7 receptor expressed in HEK cells assessed as cAMP by HTRF assay; assay type: functional, cell-based, HEK293
T2 sequence (P34969 whole entry): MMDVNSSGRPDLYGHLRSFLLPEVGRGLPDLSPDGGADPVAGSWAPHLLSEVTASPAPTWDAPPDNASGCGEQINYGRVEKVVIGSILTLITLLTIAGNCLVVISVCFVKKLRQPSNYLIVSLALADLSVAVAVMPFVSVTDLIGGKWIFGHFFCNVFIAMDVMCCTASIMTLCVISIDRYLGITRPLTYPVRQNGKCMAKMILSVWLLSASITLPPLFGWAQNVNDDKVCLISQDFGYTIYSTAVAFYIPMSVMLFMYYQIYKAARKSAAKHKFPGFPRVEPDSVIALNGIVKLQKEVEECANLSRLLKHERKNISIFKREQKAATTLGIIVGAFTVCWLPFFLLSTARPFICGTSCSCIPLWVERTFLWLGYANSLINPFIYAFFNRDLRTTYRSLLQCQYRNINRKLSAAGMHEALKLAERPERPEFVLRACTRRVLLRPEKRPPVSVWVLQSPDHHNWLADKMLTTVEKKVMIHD

human MDR1 = assay: Permeability across apical to basolateral in MDCK expressing human MDR1 at 5 uM by LC-MS/MS method; assay type: ADME, cell-based, Canis lupus familiaris; conditions: dog, read-out: permeability
[7] = Fraction unbound in rat plasma at 5 uM after 4.5 hrs by LC-MS/MS analysis; assay type: ADME, cell-free
[8] = biological target: T2, 5-hydroxytryptamine receptor 7; assay: Antagonist activity at human wild-type 5-HT7 receptor expressed in HEK cells assessed as seretonin-induced cAMP by HTRF assay; assay type: functional, cell-based, HEK293
[9] = Chemical stability of compound in buffer at pH 7.4 assessed as compound remaining at 10 mg/ml after 2 days; assay type: physicochemical; conditions: read-out: Stability
[10] = Fraction unbound in mouse plasma at 5 uM after 4.5 hrs by LC-MS/MS analysis; assay type: ADME, cell-free
Cytochrome P450 2C9 = Cytochrome P450 2C9 (Homo sapiens, UniProt P11712); assay: Inhibition of human CYP2C9 by LC-MS analysis; assay type: ADME
Sequence of Cytochrome P450 2C9 (P11712 whole entry): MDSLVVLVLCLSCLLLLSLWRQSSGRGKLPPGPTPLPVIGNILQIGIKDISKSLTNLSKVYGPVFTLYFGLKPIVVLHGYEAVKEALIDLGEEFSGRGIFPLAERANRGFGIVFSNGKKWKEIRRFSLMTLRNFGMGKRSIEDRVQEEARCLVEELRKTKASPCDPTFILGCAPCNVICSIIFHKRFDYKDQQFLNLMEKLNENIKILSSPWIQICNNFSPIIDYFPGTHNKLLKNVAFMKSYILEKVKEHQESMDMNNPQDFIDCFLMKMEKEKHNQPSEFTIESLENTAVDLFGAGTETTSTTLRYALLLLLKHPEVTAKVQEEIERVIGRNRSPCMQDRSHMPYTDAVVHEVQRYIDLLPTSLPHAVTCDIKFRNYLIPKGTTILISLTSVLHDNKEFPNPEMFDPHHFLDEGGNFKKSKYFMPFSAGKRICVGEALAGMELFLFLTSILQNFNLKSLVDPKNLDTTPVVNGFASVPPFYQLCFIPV

[11] = Ratio of drug level in brain to plasma in Swiss mouse at 5 mg/kg, sc; assay type: ADME, organism-based; conditions: read-out: BPR
[12] = Chemical stability of compound in DMSO assessed as compound remaining at 10 mg/ml after 1 day at room temperature; assay type: physicochemical; conditions: read-out: Stability
[13] = biological target: T1, 5-hydroxytryptamine receptor 6; assay: Agonist activity at human 5-HT6 receptor expressed in 1321N1 cells assessed as cAMP by HTRF assay; assay type: functional, cell-based
[14] = Chemical stability of compound in 0.1N NaOH assessed as compound remaining at 10 mg/ml after 2 days; assay type: physicochemical; conditions: read-out: Stability
[15] = Chemical stability of compound in buffer at pH 7.4 assessed as compound remaining at 10 mg/ml after 1 day; assay type: physicochemical; conditions: read-out: Stability
[16] = Chemical stability of compound in DMSO assessed as compound remaining at 10 mg/ml after 24 days at room temperature under air; assay type: physicochemical; conditions: read-out: Stability
Cytochrome P450 1A2 = biological target: T3, Cytochrome P450 1A2 (Homo sapiens, UniProt P05177); assay: Inhibition of human CYP1A2 by LC-MS analysis; assay type: ADME
T3 sequence (P05177 whole entry): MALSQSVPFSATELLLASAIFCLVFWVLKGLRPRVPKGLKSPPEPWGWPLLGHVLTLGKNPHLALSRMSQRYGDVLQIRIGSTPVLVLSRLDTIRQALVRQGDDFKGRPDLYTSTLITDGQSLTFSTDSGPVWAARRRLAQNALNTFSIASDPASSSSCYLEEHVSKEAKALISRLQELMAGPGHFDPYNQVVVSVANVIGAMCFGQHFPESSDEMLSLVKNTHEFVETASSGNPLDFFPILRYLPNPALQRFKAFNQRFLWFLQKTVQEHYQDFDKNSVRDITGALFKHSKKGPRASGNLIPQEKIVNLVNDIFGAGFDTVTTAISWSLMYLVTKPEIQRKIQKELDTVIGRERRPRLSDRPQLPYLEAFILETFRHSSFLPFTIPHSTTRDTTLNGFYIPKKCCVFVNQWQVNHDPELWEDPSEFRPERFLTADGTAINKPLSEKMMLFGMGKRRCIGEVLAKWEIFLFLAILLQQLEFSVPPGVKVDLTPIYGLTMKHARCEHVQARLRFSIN

[17] = Chemical stability of compound in 0.1N HCL assessed as compound remaining at 10 mg/ml after 1 day; assay type: physicochemical; conditions: read-out: Stability
Cytochrome P450 2C19 = Cytochrome P450 2C19 (Homo sapiens, UniProt P33261); assay: Inhibition of human CYP2C19 by LC-MS analysis; assay type: ADME
Sequence of Cytochrome P450 2C19 (P33261 whole entry): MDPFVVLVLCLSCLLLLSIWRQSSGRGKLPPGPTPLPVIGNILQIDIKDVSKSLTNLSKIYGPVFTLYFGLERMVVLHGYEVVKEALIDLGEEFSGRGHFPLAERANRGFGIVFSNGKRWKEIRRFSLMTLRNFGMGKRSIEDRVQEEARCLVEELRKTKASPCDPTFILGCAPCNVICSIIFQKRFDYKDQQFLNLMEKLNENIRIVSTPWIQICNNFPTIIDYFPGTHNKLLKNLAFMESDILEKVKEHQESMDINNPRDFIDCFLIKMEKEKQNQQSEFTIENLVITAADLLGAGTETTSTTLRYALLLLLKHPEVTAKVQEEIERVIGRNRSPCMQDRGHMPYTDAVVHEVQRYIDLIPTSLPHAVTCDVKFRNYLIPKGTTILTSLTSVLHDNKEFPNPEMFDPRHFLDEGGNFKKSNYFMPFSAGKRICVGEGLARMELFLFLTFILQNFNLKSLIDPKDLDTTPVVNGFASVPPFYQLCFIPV

[18] = Chemical stability of compound in DMSO assessed as compound remaining at 10 mg/ml after 2 days at room temperature; assay type: physicochemical; conditions: read-out: Stability
[19] = Fraction unbound in rat brain at 5 uM after 5 hrs by LC-MS/MS analysis; assay type: ADME, tissue-based
Cytochrome P450 2C8 = biological target: T4, Cytochrome P450 2C8 (Homo sapiens, UniProt P10632); assay: Inhibition of human CYP2C8 by LC-MS analysis; assay type: ADME
T4 sequence (P10632 whole entry): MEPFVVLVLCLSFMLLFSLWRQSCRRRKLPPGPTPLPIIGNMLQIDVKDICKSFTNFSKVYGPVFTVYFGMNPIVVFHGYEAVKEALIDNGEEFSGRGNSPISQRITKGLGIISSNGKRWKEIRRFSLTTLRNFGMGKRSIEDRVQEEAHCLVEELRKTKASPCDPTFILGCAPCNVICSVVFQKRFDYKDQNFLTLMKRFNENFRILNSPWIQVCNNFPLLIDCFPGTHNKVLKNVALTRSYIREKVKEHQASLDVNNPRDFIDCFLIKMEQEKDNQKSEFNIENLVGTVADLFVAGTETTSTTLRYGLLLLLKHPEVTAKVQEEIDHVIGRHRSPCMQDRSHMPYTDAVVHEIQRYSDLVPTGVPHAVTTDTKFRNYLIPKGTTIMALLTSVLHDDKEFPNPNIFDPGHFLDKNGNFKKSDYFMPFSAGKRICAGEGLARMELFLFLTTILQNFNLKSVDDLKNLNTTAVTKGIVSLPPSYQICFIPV

[20] = Kinetic solubility of compound in phosphate buffer at pH 7.4 for 4 hrs by UPLC/UV analysis; assay type: physicochemical; conditions: read-out: Kinetic_solubility
HepG2 = assay: Cytotoxicity against human HepG2 cells; assay type: cell-based

Q: With `CC(C)NCC(O)COc1cccc2ccccc12` (stereo unspecified) [PROPRANOLOL] as the compound, how does the remaining at 24 h, 10 mg/ml [1] read?
A: The remaining at 24 h, 10 mg/ml was 100%.

Q: And the Cmax [2]?
A: Its Cmax is 16 µM.

Q: And the remaining at 24 h, 10 mg/ml [3]?
A: The remaining at 24 h, 10 mg/ml was 100%.

Q: And the pIC50 [4]?
A: The pIC50 was < 5.30.

Q: What about the fraction unbound at 4.5 h, 5 µM [5] of the same compound?
A: Its fraction unbound at 4.5 h, 5 µM is 0.421.

Q: What about the pEC50 [6] of the same compound?
A: The pEC50 was < 5.30.

Q: And the Papp A→B at 5 µM (human MDR1)?
A: Its Papp A→B at 5 µM is 3.5 ×10⁻⁶ cm/s.

Q: And the fraction unbound at 4.5 h, 5 µM [7]?
A: Its fraction unbound at 4.5 h, 5 µM is 0.239.

Q: What about the pIC50 [8] of the same compound?
A: Its pIC50 is < 5.30.

Q: And the remaining at 48 h, 10 mg/ml [9]?
A: The remaining at 48 h, 10 mg/ml was 100%.

Q: What about the fraction unbound at 4.5 h, 5 µM [10] of the same compound?
A: The fraction unbound at 4.5 h, 5 µM was 0.212.

Q: What about the pIC50 (Cytochrome P450 2C9) of the same compound?
A: The pIC50 was < 5.00.

Q: And the Kp [11]?
A: The Kp was 23.

Q: And the remaining at 24 h, 10 mg/ml [12]?
A: Its remaining at 24 h, 10 mg/ml is 100%.

Q: What about the pEC50 [13] of the same compound?
A: The pEC50 was < 5.30.

Q: What about the remaining at 48 h, 10 mg/ml [14] of the same compound?
A: The remaining at 48 h, 10 mg/ml was 100%.

Q: And the remaining at 24 h, 10 mg/ml [15]?
A: Its remaining at 24 h, 10 mg/ml is 100%.

Q: What about the remaining at 576 h, 10 mg/ml [16] of the same compound?
A: The remaining at 576 h, 10 mg/ml was 100%.

Q: What about the pIC50 (Cytochrome P450 1A2) of the same compound?
A: Its pIC50 is < 5.00.

Q: What about the remaining at 24 h, 10 mg/ml [17] of the same compound?
A: The remaining at 24 h, 10 mg/ml was 100%.

Q: And the pIC50 (Cytochrome P450 2C19)?
A: The pIC50 was < 5.00.

Q: And the remaining at 48 h, 10 mg/ml [18]?
A: The remaining at 48 h, 10 mg/ml was 100%.

Q: What about the fraction unbound at 5 h, 5 µM [19] of the same compound?
A: Its fraction unbound at 5 h, 5 µM is 0.028.

Q: What about the pIC50 (Cytochrome P450 2C8) of the same compound?
A: Its pIC50 is < 5.00.

Q: What about the solubility kinetic at 4 h [20] of the same compound?
A: The solubility kinetic at 4 h was 764 µM (≈ 198 µg/mL).

Q: And the EC20 (HepG2)?
A: Its EC20 is > 100 µM.
